According to US10604541B2, “Glucokinase activators and methods of using same” (BRISTOL-MYERS SQUIBB COMPANY, priority 2016, dated 2020):
In brackets after ≈: the same amount, converted by molar mass. Read-outs that look alike come from different tables or passages of the source.

Columns and labels:
[1] = molecular target: T1, Human Glucokinase (Homo sapiens, UniProt P35557); assay: Glucokinase tandem enzymatic assay (human GK); type: biochemical
T1 construct: Full-length human hepatic GK (untagged) was expressed; made in house; host or cells: E. coli BL21 STAR (DE3)pLysS
T1 sequence (P35557 1-466 isoform P35557-2): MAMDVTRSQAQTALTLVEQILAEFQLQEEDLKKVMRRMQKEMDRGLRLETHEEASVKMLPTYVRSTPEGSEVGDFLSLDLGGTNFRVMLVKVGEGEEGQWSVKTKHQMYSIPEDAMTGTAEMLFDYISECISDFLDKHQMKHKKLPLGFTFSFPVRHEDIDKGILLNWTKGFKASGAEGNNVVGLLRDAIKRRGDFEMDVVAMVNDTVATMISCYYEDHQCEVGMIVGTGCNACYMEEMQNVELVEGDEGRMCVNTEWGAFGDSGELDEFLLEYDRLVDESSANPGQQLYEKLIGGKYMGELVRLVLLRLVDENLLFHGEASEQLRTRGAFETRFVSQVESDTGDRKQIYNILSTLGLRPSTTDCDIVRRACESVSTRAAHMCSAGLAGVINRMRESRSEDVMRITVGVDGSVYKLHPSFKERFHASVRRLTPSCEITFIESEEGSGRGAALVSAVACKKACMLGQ
Procedure: Enzymatic activity of human glucokinase (GK) was measured by incubating GK, ATP, and glucose for discrete time periods followed by quenching with EDTA (ethylenediamine tetra-acetic acid). Relative amounts of product glucose-6-phosphate (G6P) were measured by then running a detection assay using G6P dehydrogenase and measuring the conversion of ThioNAD (thio-nicotinamide adenine dinucleotide) to ThioNADH (thio-dihydronicotinamide adenine dinucleotide) at a wavelength of 405 nm. This “uncoupled” enzymatic reaction is denoted as the GK “tandem” assay. Activation of GK by the compound can be assessed using this assay. The GK tandem assay protocol described below was followed using a range of activator compound concentrations from 0 to 100 μM at 5 and 12 mM of glucose. Human full-length glucokinase (GK, 15 nM) was incubated with 5 or 12 mM glucose in a 384 well black microtiter plate with a clear bottom. To initiate the GK reaction, magnesium-ATP (3 mM final concentration) was added to GK in buffer (final buffer conditions of 25 mM HEPES buffer, pH 7.1, containing 1 mM dithiothreitol and 5% DMSO). The total reaction volume was 20 μL. The reaction was allowed to proceed for ten minutes and was then quenched with 5 μL EDTA; 45 mM final). The components of the detection reaction, ThioNAD and G6PDH (glucose-6-phosphate dehydrogenase) (final concentrations of 650 μM and 3.33 Units, respectively), were then added together in a volume of 25 μL, (to give a total volume of 50 μL). Absorbance measurements were made at 405 nm on a SPECTRAMAX® Plus 384 absorbance plate reader (Molecular Devices). Absorbance was read, background glucose-6-phosphate levels were subtracted, after which activation was calculated as a percentage of control activity. Control activity was determined using GK in the presence of vehicle (DMSO), with background glucose-6-phosphate subtracted. Background glucose-6-phosphate was determined by pre-quenching GK with EDTA prior to reaction initiation with ATP. […]

[2] = molecular target: T2, Mouse Glucokinase (Mus musculus, UniProt P52792); assay: Glucokinase activation, mouse GK; type: biochemical
T2 sequence (P52792 1-465): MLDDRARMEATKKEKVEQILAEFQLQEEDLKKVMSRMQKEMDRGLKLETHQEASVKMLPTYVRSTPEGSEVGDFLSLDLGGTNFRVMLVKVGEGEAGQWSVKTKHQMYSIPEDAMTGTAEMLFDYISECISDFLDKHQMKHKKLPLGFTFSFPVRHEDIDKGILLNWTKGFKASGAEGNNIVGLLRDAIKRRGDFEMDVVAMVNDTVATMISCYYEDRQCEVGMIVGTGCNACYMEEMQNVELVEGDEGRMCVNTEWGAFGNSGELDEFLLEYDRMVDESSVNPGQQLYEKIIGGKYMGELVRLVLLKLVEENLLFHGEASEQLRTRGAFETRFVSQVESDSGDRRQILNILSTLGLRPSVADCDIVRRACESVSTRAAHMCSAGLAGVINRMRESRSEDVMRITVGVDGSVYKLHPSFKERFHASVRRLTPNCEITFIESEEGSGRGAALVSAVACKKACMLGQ

[3] = molecular target: T3, CYP450 1A2 (Homo sapiens, UniProt P05177); assay: CYP450 1A2 inhibition; type: in vitro ADME
T3 sequence (P05177 1-516): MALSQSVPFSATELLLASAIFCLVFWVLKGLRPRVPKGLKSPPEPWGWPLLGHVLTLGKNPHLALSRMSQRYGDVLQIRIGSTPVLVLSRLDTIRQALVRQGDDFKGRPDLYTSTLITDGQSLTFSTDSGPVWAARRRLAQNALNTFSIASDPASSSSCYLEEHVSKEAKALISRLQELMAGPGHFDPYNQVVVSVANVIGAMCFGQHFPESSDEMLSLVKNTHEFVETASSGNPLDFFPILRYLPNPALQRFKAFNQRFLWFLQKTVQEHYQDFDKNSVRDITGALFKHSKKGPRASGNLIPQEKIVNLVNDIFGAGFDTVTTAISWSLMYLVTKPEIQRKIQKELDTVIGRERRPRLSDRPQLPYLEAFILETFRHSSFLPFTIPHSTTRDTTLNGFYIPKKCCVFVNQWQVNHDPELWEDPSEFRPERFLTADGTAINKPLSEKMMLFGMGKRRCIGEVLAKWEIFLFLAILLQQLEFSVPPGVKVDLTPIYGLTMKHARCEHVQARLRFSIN

[4] = molecular target: T4, CYP450 2C8 (Homo sapiens, UniProt P10632); assay: CYP450 2C8 inhibition; type: in vitro ADME
T4 sequence (P10632 1-490): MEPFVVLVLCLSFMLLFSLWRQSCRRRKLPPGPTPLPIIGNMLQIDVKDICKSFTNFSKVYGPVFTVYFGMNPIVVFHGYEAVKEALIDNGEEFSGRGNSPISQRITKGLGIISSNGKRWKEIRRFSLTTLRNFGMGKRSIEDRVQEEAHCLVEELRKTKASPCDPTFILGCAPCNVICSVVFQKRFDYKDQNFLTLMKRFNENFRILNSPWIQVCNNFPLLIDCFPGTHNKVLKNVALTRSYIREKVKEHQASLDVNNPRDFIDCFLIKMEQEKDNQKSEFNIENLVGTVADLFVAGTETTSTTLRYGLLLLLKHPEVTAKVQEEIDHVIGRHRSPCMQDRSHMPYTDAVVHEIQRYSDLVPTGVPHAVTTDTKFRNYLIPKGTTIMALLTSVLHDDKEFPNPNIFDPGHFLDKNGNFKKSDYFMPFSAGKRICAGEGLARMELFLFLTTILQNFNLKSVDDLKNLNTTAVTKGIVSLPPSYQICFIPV

[5] = molecular target: CYP450 2C9 (Homo sapiens, UniProt P11712); assay: CYP450 2C9 inhibition; type: in vitro ADME
[6] = molecular target: CYP450 2C19 (Homo sapiens, UniProt P33261); assay: CYP450 2C19 inhibition; type: in vitro ADME
[7] = molecular target: CYP450 2D6 (Homo sapiens, UniProt P10635); assay: CYP450 2D6 inhibition; type: in vitro ADME
[8] = molecular target: CYP450 3A4 (Homo sapiens, UniProt P08684); assay: CYP450 3A4 inhibition; type: in vitro ADME
[9] = Metabolic stability in human liver microsomes; type: in vitro ADME
[10] = Metabolic stability, mouse; type: in vitro ADME
[11] = Aqueous solubility; type: physicochemical; conditions: aqueous medium (not further specified)
[12] = system: male DIO (diet-induced obese) C57BL/6J mice; assay: Oral glucose tolerance test (OGTT) in DIO mice; type: in vivo, mouse
Procedure: Oral glucose tolerance tests were carried out on male DIO (diet-induced obese) C57BL/6J mice fed a high fat diet (60% kcal from fat) for 26 weeks prior to experimentation. Mice were fasted overnight before use for experiments. A test compound or vehicle (either: 1) 40% PEG 400+10% Cremophore+50% water or 2) 10% dimethyl acetamide+10% ethanol+10% Cremophore+70% water) was given orally 60 min before oral administration of a glucose solution at a dose of 2 g/kg body weight (oral glucose tolerance test; OGTT). Blood glucose levels were measured from tail-bled samples taken at different time points before and after administration of glucose (time course of 2 hours). A time curve of the blood glucose was generated and the change from baseline area-under-the curve (ΔAUC) from 0-120 min was calculated (the time glucose administration being time zero).

[13] = Pharmacokinetic study in mice (plasma and liver); type: in vivo; conditions: male, C57BL/6J, mouse, C57/B16J mice, 10 mg/kg oral
Procedure: Pharmacokinetic (PK) screening studies were carried out by methods known to one of ordinary skill in the art. For example, study compounds were administered orally to male C57 Black6j (C57B16J) mice (N=3 per time point) at 10 mg/kg as solutions in a PEG400/Cremphor EL/water (40/10/50) vehicle. The mice were fasted overnight prior to the PK study. Blood samples were taken at 0.5, 1, 2, and 4 hr post dose by cardiac bleeding. Blood samples (˜0.2 mL) were added with K2EDTA and centrifuged at 4° C. (1500-2000×g) to obtain plasma. Liver samples (N=3) were collected at 1 hr post dose. The liver tissues were homogenized with 3 volumes of water to form uniform homogenates. Both plasma and liver samples were stored at −20° C. before they were analyzed by LC/MS/MS. The plasma AUC were calculated using linear and log trapezoidal summations. The liver-to-plasma (L/P) ratio was calculated by dividing the total concentration in liver with plasma concentrations for respective mice. The average of L/P ratios from 3 mice was reported together with the standard deviation.

Chain of CYP450 2C19 (P33261 whole entry): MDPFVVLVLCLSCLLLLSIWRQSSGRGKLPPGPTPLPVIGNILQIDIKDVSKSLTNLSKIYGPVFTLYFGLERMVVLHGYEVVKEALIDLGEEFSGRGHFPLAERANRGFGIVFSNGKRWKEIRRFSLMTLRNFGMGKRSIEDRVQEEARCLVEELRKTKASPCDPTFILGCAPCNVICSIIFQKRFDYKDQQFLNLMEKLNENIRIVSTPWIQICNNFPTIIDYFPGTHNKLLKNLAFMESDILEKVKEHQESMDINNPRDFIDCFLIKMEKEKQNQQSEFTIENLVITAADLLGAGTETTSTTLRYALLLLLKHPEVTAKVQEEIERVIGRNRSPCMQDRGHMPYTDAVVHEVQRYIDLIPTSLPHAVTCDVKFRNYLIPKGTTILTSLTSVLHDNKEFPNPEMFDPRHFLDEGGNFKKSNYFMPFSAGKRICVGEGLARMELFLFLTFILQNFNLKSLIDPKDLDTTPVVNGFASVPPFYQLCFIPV
Chain of CYP450 2D6 (P10635 whole entry): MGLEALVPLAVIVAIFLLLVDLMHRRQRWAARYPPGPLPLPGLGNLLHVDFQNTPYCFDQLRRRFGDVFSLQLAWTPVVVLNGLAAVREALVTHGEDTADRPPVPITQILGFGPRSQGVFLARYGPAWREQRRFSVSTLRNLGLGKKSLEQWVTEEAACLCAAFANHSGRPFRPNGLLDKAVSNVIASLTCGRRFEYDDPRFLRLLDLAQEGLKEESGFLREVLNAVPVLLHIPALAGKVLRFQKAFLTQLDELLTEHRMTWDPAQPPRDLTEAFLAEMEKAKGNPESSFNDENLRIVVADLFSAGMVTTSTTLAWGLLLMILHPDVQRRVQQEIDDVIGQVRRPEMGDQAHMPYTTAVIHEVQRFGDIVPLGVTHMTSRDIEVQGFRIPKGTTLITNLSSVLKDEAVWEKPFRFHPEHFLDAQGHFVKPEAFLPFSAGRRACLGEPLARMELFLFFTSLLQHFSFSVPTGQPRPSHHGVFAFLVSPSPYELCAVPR
Chain of CYP450 3A4 (P08684 whole entry): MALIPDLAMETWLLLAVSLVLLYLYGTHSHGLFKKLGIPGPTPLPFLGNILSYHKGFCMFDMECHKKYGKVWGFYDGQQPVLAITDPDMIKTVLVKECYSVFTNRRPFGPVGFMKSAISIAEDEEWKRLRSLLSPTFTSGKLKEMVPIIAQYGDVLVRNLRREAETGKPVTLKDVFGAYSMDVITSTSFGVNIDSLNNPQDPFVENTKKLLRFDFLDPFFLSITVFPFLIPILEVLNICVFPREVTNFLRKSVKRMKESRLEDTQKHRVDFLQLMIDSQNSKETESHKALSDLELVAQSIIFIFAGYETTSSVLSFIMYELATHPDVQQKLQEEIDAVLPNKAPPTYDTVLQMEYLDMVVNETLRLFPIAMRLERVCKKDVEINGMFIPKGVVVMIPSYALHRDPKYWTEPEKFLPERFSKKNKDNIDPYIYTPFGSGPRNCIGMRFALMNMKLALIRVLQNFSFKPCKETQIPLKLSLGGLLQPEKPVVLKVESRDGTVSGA
Chain of CYP450 2C9 (P11712 whole entry): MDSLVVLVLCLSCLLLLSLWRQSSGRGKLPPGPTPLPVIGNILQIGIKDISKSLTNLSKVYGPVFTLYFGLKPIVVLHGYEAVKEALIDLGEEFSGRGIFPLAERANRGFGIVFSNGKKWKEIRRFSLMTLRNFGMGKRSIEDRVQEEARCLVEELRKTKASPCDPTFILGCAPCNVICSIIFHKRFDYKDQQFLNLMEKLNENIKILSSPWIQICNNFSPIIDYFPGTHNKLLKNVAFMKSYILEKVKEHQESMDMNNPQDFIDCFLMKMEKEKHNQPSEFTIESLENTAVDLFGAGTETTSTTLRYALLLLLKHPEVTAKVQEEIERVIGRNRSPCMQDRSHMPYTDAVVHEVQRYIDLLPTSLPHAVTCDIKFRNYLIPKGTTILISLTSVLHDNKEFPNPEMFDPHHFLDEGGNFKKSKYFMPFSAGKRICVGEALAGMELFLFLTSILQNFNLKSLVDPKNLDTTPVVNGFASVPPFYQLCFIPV

EC50 [1]: 36 nM
IC50 [1]: 95 nM
Emax ([1]; read-out: Human Glucokinase Ymax (maximal activation)): 194%
EC50 [2]: 37 nM
Emax ([2]; read-out: Mouse Glucokinase Ymax (maximal activation)): 194%
IC50 [3]: > 40 µM
IC50 [4]: 24.6 µM
IC50 [5]: 26.8 µM
IC50 [6]: > 40 µM
IC50 [7]: > 40 µM
IC50 [8]: > 40 µM
Metabolic Stability Human Liver Microsomes (0.5 μM) [9]: 80%
Metabolic Stability Mouse (0.5 μM) [10]: 92%
solubility [11]: 74 µg/mL (≈ 121 µM)
Kp at 1 h ([13]; liver/plasma, po, 10 mg/kg, read-out: Liver/Plasma ratio): ~39
AUC(0-t) ([13]; plasma, 0-4 hr): 1.53 µM·h
concentration at 0.5 h ([13]; plasma, 0.5 hr post dose): 604 ± 234 nM
concentration at 1 h ([13]; plasma, 1 hr post dose, read-out: Plasma (1 hr)): 0.631 ± 0.286 µM
concentration at 2 h ([13]; plasma, 2 hr post dose): 398 ± 193 nM
concentration at 4 h ([13]; plasma, 4 hr post dose): 193 ± 133 nM
concentration at 1 h ([13]; liver concentration 1 hr post dose, read-out: Liver (1 hr)): 21.6 ± 1.36 µM
Compound: CC[C@@H](COC)Oc1cc(Oc2ccc(S(C)(=O)=O)nc2)cc(C(=O)Nc2nc(CP3(=O)OCCCO3)cs2)c1 [Example 1, 3-(((1S)-1-(methoxymethyl)propyl)oxy)-5-((6-(methylsulfonyl)-3-pyridinyl)oxy)-N-(4-((2-oxido-1,3,2-dioxaphosphinan-2-yl)methyl)-1,3-thiazol-2-yl)benzamide]
reduction in glucose AUC (after an oral glucose tolerance test in diet-induced obese mice) ([12]; 10 μmol/kg dose): 47%
Glucose lowering (AUC) (120 min) ([12]; OGTT, DIO mice, oral dose 10 μmol/kg, AUC 0-120 min): −47%
